Measurements reported in patent publication US20190369122A1, “METABOLIC DISORDERS” (priority 2016, published 2019).

Columns and labels:
[1] = test system: GF mice; experiment: Intraperitoneal glucose tolerance test in GF mice; type: in vivo, mouse; settings: 500 μg i.p. twice per day for 3 days
Experimental: (§1) An intraperitoneal glucose tolerance test (using 1 g glucose per kg body weight) was then performed after a 4 h fast. Blood glucose levels were measured from tail blood using HemoCue201+analyzer (HemoCue, Angelholm, Sweden). Liver and plasma samples were collected after a 4 h fast. Mice were under isoflurane anesthesia and killed by cervical dislocation. Fresh liver was taken and snap-frozen in liquid nitrogen and stored at −80° C. until protein extraction.

[2] = test system: CONVR mice; experiment: Intraperitoneal glucose tolerance test in CONVR mice; type: in vivo, mouse; settings: 100 μg i.p. twice per day for 3 days
Experimental: as §1

[3] = test system: HEK293 cells; experiment: Immunofluorescence of mTOR and LAMP2 in HEK293 cells; type: cell-based, human; settings: amino acid-deprived HEK293; 100 μM for 1 h
Experimental: Cells were grown on poly-L-lysine (Sigma) coated 4 well chamber slides, fixed with 4% paraformaldehyde for 15 min at 37° C., then washed with glycine-PBS and permeablized with 0.3% Triton X-100 for 10 min. After blocking with 3% BSA in PBS, cells were stained for mTOR and LAMP2. Images were obtained by confocal microscope.

[4] = test system: G6pase, Pepck, Srebp1c, Fasn, Irs1, Irs2; experiment: Hepatic gene expression in GF mice (real-time PCR); type: in vivo, mouse; settings: 500 μg i.p. twice per day for 3 days
Experimental: as §1
Mouse liver was homogenized in RLT buffer with ([…] using TissueLyser (Qiagen, Hilden, Germany). RNA was isolated using the RNeasy Minikit (Qiagen) and reverse transcribed to synthesize cDNA using High Capacity cDNA Reverse Transcription Kit (Applied Biosystems, Foster City, Calif., USA) according to the manufacturer's protocol. Real-time PCR was performed using 1×SYBR Green Master Mix (Thermo Scientific, Waltham, Mass., USA) using the following primers.

Q: How did the glucose tolerance [1] turn out when O=C(O)CCc1cnc[nH]1 [imidazole propionate] was run?
A: Its glucose tolerance is “significant glucose intolerance”.

Q: What about the glucose tolerance [2] of the same compound?
A: The glucose tolerance was “impaired glucose tolerance”.

Q: What about the “lysosomal localization of mTOR” value [3] of the same compound?
A: The value was “induced”.

Q: What about the “hepatic Irs1 and Irs2 mRNA levels” value [4] of the same compound?
A: Its value is “no significant changes”.

Q: What about the “hepatic expression of Srebp1c and Fasn” value [4] of the same compound?
A: Its value is “did not affect”.

Q: What about the “hepatic expression of G6pase and Pepck” value ([4]; vs controls) of the same compound?
A: The value was “significantly increased”.
